# Source: patent publication US7632816B2, “Treatment of Alzheimer amyloid deposition” (New York University, priority 2003, dated 2009)
# “Also recorded” adds a separate entry of the source. Square brackets hold non-standard residues; d marks the D form. Peptide text beside a SMILES is read from it.
# Experiments:
# apoE4 [1] = target: T1, apoE4 (Homo sapiens, UniProt P02649, C130R); experiment: Toxicity rescue: neutralizing apoE4's effect on Aβ1-42 neurotoxicity, MTT assay in SK-N-SH cells; type: cell-based; settings: Aβ1-42 100 μmol/L, apoE4 0.5 μmol/L preincubated with 0.5 μmol/L peptide; two day p<0.05, 6 day p<0.01
# T1 construct: made in house; host or cells: primary forebrain astrocytes of GFAP-human apoE4 transgenic mice
# T1 sequence (P02649 19-317 C130R): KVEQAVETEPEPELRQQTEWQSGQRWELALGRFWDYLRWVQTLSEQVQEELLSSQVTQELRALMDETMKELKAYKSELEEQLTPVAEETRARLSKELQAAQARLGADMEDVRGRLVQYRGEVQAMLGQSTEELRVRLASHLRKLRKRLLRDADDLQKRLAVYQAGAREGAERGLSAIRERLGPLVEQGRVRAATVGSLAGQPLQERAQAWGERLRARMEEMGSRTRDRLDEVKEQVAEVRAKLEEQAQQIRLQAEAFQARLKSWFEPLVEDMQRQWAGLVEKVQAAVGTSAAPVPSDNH
# Protocol: All experiments were run in triplicate. The results from cell culture neurotoxicity studies were evaluated by one-way analysis of variance, followed by a Dunnett's test as a post hoc analysis.
# [2] = Thioflavin-T assay of the peptides' own amyloid fibril formation; type: physicochemical; settings: 100 μmol/L peptide, 37° C., up to 10 days
# Protocol: All peptides were HFIP treated and reconstituted in 100 mM Tris buffer (pH 7.4) to obtain a 100 μmol/L concentration. […] Peptides were incubated over a period of 10 days at 37° C. Samples containing 15 μg of incubated peptides were taken at indicated intervals and fluorescence was measured as previously described in a Perkin-Elmer LS-50B fluorescence spectrophotometer (Perkin Elmer Instruments, Shelton, Conn.) (Wisniewski et al., “Acceleration of Alzheimer's Fibril Formation by Apolipoprotein E in vitro,” Am. J. Pathol. 145:1030-1035 (1994); Golabek et al., “The Interaction Between Apolipoprotein E and Alzheimer's Amyloid β-peptide is Dependent on β-peptide Conformation,” J. Biol. Chem. 271:10602-10606 (1996); which are hereby incorporated by reference in their entirety). The mean±standard deviation (“SD”) for three separate experiments was plotted in FIG. 1. Differences in amount of fibrils formed by the different peptides were evaluated by means of a repeated measures ANOVA, followed by a Tukey HSD post-hoc test using Statistica (version 6.1) (StatSoft Inc., Tulsa, Okla.).
# apoE4 [3] = target: T1, apoE4; experiment: Competitive inhibition ELISA: apoE4 binding to immobilized Aβ1-40
# Protocol: Lipidated apoE4 100 nM was preincubated with an increasing concentration of Aβ12-28P (0-400 nM) in 10 mM Tris buffer pH 7.4 for three hours at 37° C., and then added to the plate (100 μL/well). […] The color reaction was developed with a 3,3,5,5-tetramethybenzidine substrate (Sigma, St. Louis, Mo.), stopped with 2M sulfuric acid, and optical density (“OD”) was read at 450 nm on a 7520 Microplate Reader (Cambridge Technology, Watertown, Mass.). Non-specific binding was determined using bovine serum albumin and/or omitting the apoE4 in the assay. OD values were converted to percentages with the binding of apoE4 in the absence of inhibitor being considered as 100%. The mean±standard deviation from three independent duplicate experiments was plotted in FIG. 3 and analyzed by a one site competition nonlinear regression fit algorithm using GraphPad Prism v4.0 (GraphPad Software, San Diego, Calif.).
# [4] = mouse
# Aβ1-42 = target: T2, Aβ1-42 (Homo sapiens, UniProt P05067); experiment: Thioflavin-T assay: peptide alone added to Aβ1-42 (no apoE); type: biochemical; settings: same concentration of Aβ12-28P
# T2 construct: made in house; host or cells: chemical peptide synthesis
# T2 sequence (P05067 672-713): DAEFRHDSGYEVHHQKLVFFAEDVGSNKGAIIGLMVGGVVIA
# [5] = set-up: species or system mice; settings: mouse, in vivo
# Protocol: Blood samples were collected at given time points. Serum was separated from plasma by centrifugation at 10,000×g for 10 minutes. The trichloroacetic (TCA) acid precipitation method was used to assess the amount of radiolabeled peptide present in the serum (Yi et al., “Amyloid β40/42 Clearance Across the Blood-brain Barrier Following Intra-ventricular Injections in Wild-type, apoE Knock-out and Human apoE3 or E4 Expressing Transgenic Mice,” J. Alz. Dis. 3:23-30 (2001); Mackic et al., “Transport Across the Blood-brain Barrier and Differential Cerebrovascular Sequestration of Circulating Alzheimer's Amyloid-β Peptide in Aged Rhesus Versus Aged Squirrel Monkeys,” Vascul. Pharmacol. 38:303-313 (2002); which are hereby incorporated by reference in their entirety). A 30% stock solution of bovine albumin (Sigma, St. Louis, Mo.) in PBS was added to serum samples to obtain a final albumin solution of 5%, which was thoroughly mixed. Serum samples were then precipitated with TCA (final concentration of TCA was 15%) and centrifugated at 25,000×g in a Beckmann TL-100 Ultracentrifuge. Radioactivity was assessed in the pellet fraction using a Beckman 4000 gamma counter. Serum level of ^125I-Aβ12-28P following intranasal peptide administration was assessed in another six wild type C57BL6J mice. Under ketamine/xylazine anesthesia 80 μg of radiolabeled peptide (in 100 μl of PBS) was administered into the nasal cavity. Ten 10 μl drops were instilled into both nostrils alternatively over five minutes. Serum samples were collected and radioactivity in TCA precipitated pellets was measured as described above. The obtained data was transformed into percentage values compared to serum radioactivity following intravenous injections at t=0 as 100%. The mean±standard deviation from all tested animals was plotted in FIG. 4 and analyzed by a one phase exponential decay nonlinear regression fit algorithm using GraphPad Prism v4.0.
# At t=0, the serum level was equal to about 40% of the level achieved after administration of the same amount of peptide intravenously.
smiles,measurement,setting,value
CC(=O)N[C@@H](C(=O)N[C@H](Cc1c[nH]cn1)C(=O)N[C@H](Cc1c[nH]cn1)C(=O)N[C@H](CCC(N)=O)C(=O)N[C@H](CCCCN)C(=O)N[C@H](CC(C)C)C(=O)N1CCC[C@@H]1C(=O)N[C@H](Cc1ccccc1)C(=O)N[C@H](Cc1ccccc1)C(=O)N[C@H](C)C(=O)N[C@H](CCC(=O)O)C(=O)N[C@H](CC(=O)O)C(=O)N[C@@H](C(=O)NCC(=O)N[C@H](CO)C(=O)N[C@H](CC(N)=O)C(=O)N[C@H](CCCCN)C(N)=O)C(C)C)C(C)C [Aβ12-28P] (Ac-[dV][dH][dH][dQ][dK][dL][dP][dF][dF][dA][dE][dD][dV]G[dS][dN][dK]-NH2),rescue of cell viability from apoE4-enhanced Aβ1-42 toxicity,apoE4 [1],significant rescue of the cell viability; also recorded: could be neutralized
same,fibril formation (Thioflavin-T fluorescence),[2],did not form any fibrils; also recorded: non-fibrillogenic; also recorded: No fibrils were formed
same,IC50,"apoE4 [3]; 100 nM lipidated apoE4 preincubated with 0-400 nM peptide, one-site competition fit",36.7 nM
same,Ki,apoE4 [3]; read-out: inhibition constant (KI),11.4 nM
same,BBB permeability,[4],BBB permeable
same,share found in the capillary depleted brain fraction,[4]; in vivo,More than 90%
same,effect of peptide alone on Aβ1-42 fibrillogenesis,Aβ1-42,did not have any significant effect
same,"areas under the curve, intravenous versus intranasal",[5],no significant differences
same,half-life after a single intravenous injection,[5],1.03 h
same,half-life,"[5]; iv, half-life after a single intravenous injection",1.04 ± 0.3 h
